# Data published in patent US10316035B2, “Triazolopyridine inhibitors of myeloperoxidase” (BRISTOL-MYERS SQUIBB COMPANY, priority 2015, dated 2019).
# Biological target: T1, myeloperoxidase (MPO) (Homo sapiens, UniProt P05164)
# T1 sequence (P05164 49-745): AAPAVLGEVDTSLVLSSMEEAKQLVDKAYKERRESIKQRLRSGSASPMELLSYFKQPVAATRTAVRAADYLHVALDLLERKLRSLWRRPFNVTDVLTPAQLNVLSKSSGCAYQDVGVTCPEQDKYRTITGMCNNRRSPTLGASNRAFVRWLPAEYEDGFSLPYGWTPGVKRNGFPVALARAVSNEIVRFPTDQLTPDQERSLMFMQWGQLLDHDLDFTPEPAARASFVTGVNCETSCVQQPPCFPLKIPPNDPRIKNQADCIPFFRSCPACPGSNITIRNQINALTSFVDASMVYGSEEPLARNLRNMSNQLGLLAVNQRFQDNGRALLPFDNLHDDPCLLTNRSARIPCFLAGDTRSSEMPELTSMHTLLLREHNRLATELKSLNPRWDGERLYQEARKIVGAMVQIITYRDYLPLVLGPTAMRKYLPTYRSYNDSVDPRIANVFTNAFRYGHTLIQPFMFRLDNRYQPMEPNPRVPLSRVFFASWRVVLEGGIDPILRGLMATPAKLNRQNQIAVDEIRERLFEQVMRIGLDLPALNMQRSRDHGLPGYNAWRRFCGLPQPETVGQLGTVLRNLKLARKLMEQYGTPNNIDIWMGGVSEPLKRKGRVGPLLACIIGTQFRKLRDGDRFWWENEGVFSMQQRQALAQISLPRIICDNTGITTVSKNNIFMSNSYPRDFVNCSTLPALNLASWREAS
# Assay: MPO peroxidation assay (Amplex Red assay)
# Assay type: biochemical
# Settings: not given
# In short: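 MPO (200 pM) with 40 nM H2O2 was preincubated 10 min at room temperature with inhibitor in 100 mM KPi pH 7.4. A mix of Amplex Red (200 μM) and H2O2 (10 mM) was then added and resorufin fluorescence read kinetically for 15 min. Slopes over 180–540 s gave % inhibition and IC50 via a four-parameter Hill fit.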
row,IC50 [nM],SMILES
1,101 to 999,"CS(=O)(=O)c1ccccc1COc1cc(N)nc2[nH]nnc12 [Example 232, 7-((2-(Methylsulfonyl)benzyl)oxy)-3H-[1,2,3]triazolo[4,5-b]pyridin-5-amine]"

# Same assay, conditions: MPO peroxidation, potency range class; read-out: Amplex Red IC50
row,SMILES,IC50 [nM]
1,"CC(C)Cn1cc(-c2ccc(F)c(COc3cc(N)nc4[nH]nnc34)c2)cn1 [Example 82, 7-(2-Fluoro-5-(1-isobutyl-1H-pyrazol-4-yl)benzyloxy)-3H-[1,2,3]triazolo[4,5-b]pyridin-5-amine]",1 to 100
2,"CCOc1ccc(Cl)cc1COc1cc(N)nc2[nH]nnc12 [Example 88, 7-(5-Chloro-2-ethoxybenzyloxy)-3H-[1,2,3]triazolo[4,5-b]pyridin-5-amine]",1 to 100
3,"CCC(F)(F)C(Oc1cc(N)nc2[nH]nnc12)c1ccccc1 (racemic) [Example 135, 7-(2,2-Difluoro-1-phenylbutoxy)-3H-[1,2,3]triazolo[4,5-b]pyridin-5-amine]",101 to 999
4,"Nc1cc(OCc2cccc(S(=O)(=O)N3CCOCC3)c2)c2nn[nH]c2n1 [Example 4, 7-(3-(Morpholinosulfonyl)benzyloxy)-3H-[1,2,3]triazolo[4,5-b]pyridin-5-amine]",101 to 999
5,"CCN(C)C(=O)c1ccc(-c2cccc(COc3cc(N)nc4[nH]nnc34)c2)cc1F [Example 116, 3′-((5-Amino-3H-[1,2,3]triazolo[4,5-b]pyridin-7-yloxy)methyl)-N-ethyl-3-fluoro-N-methylbiphenyl-4-carboxamide]",101 to 999
6,"Nc1cc(OCc2cccc(-c3ccccc3Cl)c2)c2nn[nH]c2n1 [Example 93, 7-((2′-Chlorobiphenyl-3-yl)methoxy)-3H-[1,2,3]triazolo[4,5-b]pyridin-5-amine]",1 to 100
7,"Nc1cc(OCc2ccc(-c3ccc(OC(F)(F)F)cc3)cc2)c2nn[nH]c2n1 [Example 119, 7-((4′-(Trifluoromethoxy)biphenyl-4-yl)methoxy)-3H-[1,2,3]triazolo[4,5-b]pyridin-5-amine]",101 to 999
8,"Nc1cc(OCc2cccc(-c3ccc(Cl)cc3)c2)c2nn[nH]c2n1 [Example 97, 7-((4′-Chlorobiphenyl-3-yl)methoxy)-3H-[1,2,3]triazolo[4,5-b]pyridin-5-amine]",101 to 999
9,"Nc1cc(OCc2cc(C(F)(F)F)ccc2Cl)c2nn[nH]c2n1 [Example 28, 7-(2-Chloro-5-(trifluoromethyl)benzyloxy)-3H-[1,2,3]triazolo[4,5-b]pyridin-5-amine]",1 to 100
10,"Nc1cc(OCc2cc(-c3cccc(F)c3)ccc2F)c2nn[nH]c2n1 [Example 71, 7-((3′,4-Difluorobiphenyl-3-yl)methoxy)-3H-[1,2,3]triazolo[4,5-b]pyridin-5-amine]",1 to 100
11,"COc1ccc(-c2ccc(COc3cc(N)nc4[nH]nnc34)cc2)cc1 [Example 122, 7-((4′-Methoxybiphenyl-4-yl)methoxy)-3H-[1,2,3]triazolo[4,5-b]pyridin-5-amine]",1 to 100
12,"COc1ccc(-c2cccc(COc3cc(N)nc4[nH]nnc34)c2)cc1F [Example 105, 7-((3′-Fluoro-4′-methoxybiphenyl-3-yl)methoxy)-3H-[1,2,3]triazolo[4,5-b]pyridin-5-amine]",1 to 100
13,"COc1ccccc1-c1ccc(F)c(COc2cc(N)nc3[nH]nnc23)c1F [Example 73, 7-((2,4-Difluoro-2′-methoxybiphenyl-3-yl)methoxy)-3H-[1,2,3]triazolo[4,5-b]pyridin-5-amine]",1 to 100

# Next, values leading:
row,IC50 [nM],SMILES
1,1 to 100,"Nc1cc(OCc2c(F)cccc2Cl)c2nn[nH]c2n1 [Example 237, 7-((2-Chloro-6-fluorobenzyl)oxy)-3H-[1,2,3]triazolo[4,5-b]pyridin-5-amine]"
2,1 to 100,"Nc1cc(OCc2ccc(C(=O)Nc3ccccc3)cc2Cl)c2nn[nH]c2n1 [Example 213, 4-((5-amino-3H-[1,2,3]triazolo[4,5-b]pyridin-7-yloxy)methyl)-3-chloro-N-phenylbenzamide]"
3,101 to 999,"Nc1cc(OCc2ccc(C(=O)NC3CC3)cc2Cl)c2nn[nH]c2n1 [Example 197, 4-((5-amino-3H-[1,2,3]triazolo[4,5-b]pyridin-7-yloxy)methyl)-3-chloro-N-cyclopropylbenzamide]"
4,101 to 999,"CN(C(=O)c1ccc(COc2cc(N)nc3[nH]nnc23)c(Cl)c1)C1CCCCC1 [Example 223, 4-((5-amino-3H-[1,2,3]triazolo[4,5-b]pyridin-7-yloxy)methyl)-3-chloro-N-cyclohexyl-N-methylbenzamide]"
5,1 to 100,"COc1ccccc1-c1ccc(COc2cc(N)nc3[nH]nnc23)cc1 [Example 123, 7-((2′-Methoxybiphenyl-4-yl)methoxy)-3H-[1,2,3]triazolo[4,5-b]pyridin-5-amine]"
6,1 to 100,"NC(=O)CNC(=O)c1ccc(F)c(COc2cc(N)nc3[nH]nnc23)c1 [Example 161, N-(2-amino-2-oxoethyl)-3-((5-amino-3H-[1,2,3]triazolo[4,5-b]pyridin-7-yloxy)methyl)-4-fluorobenzamide]"
7,1 to 100,"Nc1cc(OCc2cc(-c3ccc(CO)nc3)ccc2F)c2nn[nH]c2n1 [Example 347, (5-(3-(((5-amino-3H-[1,2,3]triazolo[4,5-b]pyridin-7-yl)oxy)methyl)-4-fluorophenyl)pyridin-2-yl)methanol]"
8,1 to 100,"Nc1cc(OCc2c(F)cc(-c3cccnc3)cc2F)c2nn[nH]c2n1 [Example 332, 7-((2,6-difluoro-4-(pyridin-3-yl)benzyl)oxy)-3H-[1,2,3] triazolo[4,5-b]pyridin-5-amine]"
9,101 to 999,"Nc1cc(OCc2ccc(-n3cnc(C(F)(F)F)c3)cc2OC(F)(F)F)c2nn[nH]c2n1 [Example 272, 7-((2-(trifluoromethoxy)-4-(4-(trifluoromethyl)-1H-imidazol-1-yl)benzyl)oxy)-3H-[1,2,3]triazolo[4,5-b] pyridin-5-amine]"
10,101 to 999,"CS(=O)(=O)N1CCN(c2ccc(-c3ccc(COc4cc(N)nc5[nH]nnc45)c(OC(F)(F)F)c3)cn2)CC1 [Example 295, 7-((4-(6-(4-(methylsulfonyl)piperazin-1-yl)pyridin-3-yl)-2-(trifluoromethoxy)benzyl)oxy)-3H-[1,2,3] triazolo[4,5-b]pyridin-5-amine]"
11,101 to 999,"CN1CCN(c2ccc(-c3ccc(F)c(COc4cc(N)nc5[nH]nnc45)c3)cn2)CC1 [Example 346, 7-((2-fluoro-5-(6-(4-methylpiperazin-1-yl)pyridin-3-yl)benzyl)oxy)-3H-[1,2,3]triazolo [4,5-b]pyridin-5-amine]"
12,1 to 100,Nc1cc(OCc2ccc(C(=O)N3CCCC(Oc4ccccc4)C3)cc2Cl)c2nn[nH]c2n1 (centres unmarked) [Example 209]
13,1 to 100,"Nc1cc(OCc2cc(C(=O)NCc3ccc[nH]c3=O)ccc2Cl)c2nn[nH]c2n1 [Example 192, 3-((5-amino-3H-[1,2,3]triazolo [4,5-b]pyridin-7-yloxy)methyl)-4-chloro-N-((2-oxo-1,2-dihydropyridin-3-yl)methyl) benzamide]"
14,1 to 100,"COc1cc(Cl)c(Cl)cc1COc1cc(N)nc2[nH]nnc12 [Example 252, 7-((4,5-Dichloro-2-methoxybenzyl)oxy)-3H-[1,2,3]triazolo[4,5-b]pyridin-5-amine]"
15,101 to 999,"Nc1cc(OC(c2ccccc2)C(F)(F)F)c2nn[nH]c2n1 (centres unmarked) [Example 126, 7-(2,2,2-Trifluoro-1-phenylethoxy)-3H-[1,2,3]triazolo[4,5-b]pyridin-5-amine]"
